From the supplement of paper PMC11451515

Test system: SEM cells
Assay: cell viability relative to DMSO control; higher = less cytotoxic
Conditions: 48 h
Method in brief: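 NOMO1 or SEM (500 cells/well) or P12-Ichikawa (1000 cells/well) leukemia cells were adapted for at least four passages in each medium. They were seeded in 1536-well plates (5 μl) and pin-dosed with library compounds in DMSO over an 11-point threefold series, 47 μM to 0.79 nM. CellTiter-Glo One luminescence was read after 48 h at 37°C. Viability is the per-plate percentage relative to DMSO wells, with cell-free wells as background.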

[1] = HPLM + 10% dialyzed FBS, 0.000781 µM
[2] = HPLM + 10% dialyzed FBS, 0.00234 µM
[3] = HPLM + 10% dialyzed FBS, 0.00702 µM
[4] = HPLM + 10% dialyzed FBS, 0.0211 µM
[5] = HPLM + 10% dialyzed FBS, 0.0632 µM
[6] = HPLM + 10% dialyzed FBS, 0.19 µM
[7] = HPLM + 10% dialyzed FBS, 0.569 µM
[8] = HPLM + 10% dialyzed FBS, 1.71 µM
[9] = HPLM + 10% dialyzed FBS, 5.12 µM
[10] = HPLM + 10% dialyzed FBS, 15.4 µM
[11] = HPLM + 10% dialyzed FBS, 46.1 µM
[12] = RPMI 5 mM glucose + 10% FBS, 0.000781 µM
[13] = RPMI 5 mM glucose + 10% FBS, 0.00234 µM
[14] = RPMI 5 mM glucose + 10% FBS, 0.00702 µM
[15] = RPMI 5 mM glucose + 10% FBS, 0.0211 µM
[16] = RPMI 5 mM glucose + 10% FBS, 0.0632 µM
[17] = RPMI 5 mM glucose + 10% FBS, 0.19 µM
[18] = RPMI 5 mM glucose + 10% FBS, 0.569 µM
[19] = RPMI 5 mM glucose + 10% FBS, 1.71 µM
[20] = RPMI 5 mM glucose + 10% FBS, 5.12 µM
[21] = RPMI 5 mM glucose + 10% FBS, 15.4 µM
[22] = RPMI 5 mM glucose + 10% FBS, 46.1 µM
[23] = RPMI 5 mM glucose + 10% dialyzed FBS, 0.000781 µM
[24] = RPMI 5 mM glucose + 10% dialyzed FBS, 0.00234 µM
[25] = RPMI 5 mM glucose + 10% dialyzed FBS, 0.00702 µM
[26] = RPMI 5 mM glucose + 10% dialyzed FBS, 0.0211 µM
[27] = RPMI 5 mM glucose + 10% dialyzed FBS, 0.0632 µM
[28] = RPMI 5 mM glucose + 10% dialyzed FBS, 0.19 µM
[29] = RPMI 5 mM glucose + 10% dialyzed FBS, 0.569 µM
[30] = RPMI 5 mM glucose + 10% dialyzed FBS, 1.71 µM
[31] = RPMI 5 mM glucose + 10% dialyzed FBS, 5.12 µM
[32] = RPMI 5 mM glucose + 10% dialyzed FBS, 15.4 µM
[33] = RPMI 5 mM glucose + 10% dialyzed FBS, 46.1 µM

Compound	cell viability [1] [%]	cell viability [2] [%]	cell viability [3] [%]	cell viability [4] [%]	cell viability [5] [%]	cell viability [6] [%]	cell viability [7] [%]	cell viability [8] [%]	cell viability [9] [%]	cell viability [10] [%]	cell viability [11] [%]	cell viability [12] [%]	cell viability [13] [%]	cell viability [14] [%]	cell viability [15] [%]	cell viability [16] [%]	cell viability [17] [%]	cell viability [18] [%]	cell viability [19] [%]	cell viability [20] [%]	cell viability [21] [%]	cell viability [22] [%]	cell viability [23] [%]	cell viability [24] [%]	cell viability [25] [%]	cell viability [26] [%]	cell viability [27] [%]	cell viability [28] [%]	cell viability [29] [%]	cell viability [30] [%]	cell viability [31] [%]	cell viability [32] [%]	cell viability [33] [%]
C[C@@H]1CC[C@@]2(OC1)OC1CC3C4CC=C5CC(O)CCC5(C)C4CCC3(C)C1[C@@H]2C (some centres undefined)	88.6	48	101	100	100	106	107	95.1	102	91.4	73.6	85.9	40.2	97.9	89.7	93.3	93.2	93.6	90.4	96.1	76.3	26.6	86.3	44.1	93.9	107	88.6	104	92.4	84.1	101	85.5	61.5
N#CC(=C(/N)Sc1ccccc1N)/C(C#N)=C(\N)Sc1ccccc1N	95.9	101	129	133	116	123	111	113	94.1	100	83	–	–	–	–	–	–	–	–	–	–	–	116	120	139	151	113	118	111	98.2	93.2	89	57.3
Cc1cn(CCN2CCN(c3ccccc3-c3cc(C#N)cc(C(=O)NCCCN4CCCC4)c3)CC2)c2ccccc12	103	103	94.9	97.1	99.9	101	112	102	73.2	23.8	18.3	–	–	–	–	–	–	–	–	–	–	–	104	116	116	101	117	119	128	113	102	42	27
COC1=CC2=C(C=C1OC)[C@H]3[C@@H](CO2)OC4=C(C=CC5=C4\C=C/C(C)(C)O5)C3=O	82.5	97.1	101	96.8	85.3	89	92.7	91	78.9	85.2	3.39	95.1	99.1	107	95.6	78.5	112	85.4	71	24.4	31	3.59	87.7	85.1	92.4	88.9	64.6	79.2	75.4	63	44.8	46.2	3.18
CC[C@@]1(O)C[C@H](O[C@H]2C[C@H](N(C)C)[C@H](O[C@H]3C[C@H](O)[C@H](O[C@H]4CCC(=O)[C@H](C)O4)[C@H](C)O3)[C@H](C)O2)c2c(cc3c(c2O)C(=O)c2c(O)cccc2C3=O)[C@H]1C(=O)OC	79.8	68.5	86.2	77.9	48.4	50	26.5	11.4	13.5	24	15.8	81	65.9	85.2	72.5	46.2	54.4	32.7	18.1	23.2	20.2	19.5	85.5	48.6	83.7	66.7	46.2	51.3	26.2	11.8	12.2	15.4	12.9
COc1cc(OC)c(NC(=O)Nc2cc(C)on2)cc1Cl	95.9	94.2	104	98.4	94.6	99.8	97.3	112	100	97.5	71.3	74.3	79.6	90.9	89.6	82	86.5	91.3	92	76.6	80.6	63.8	84.8	100	90.3	94.5	105	108	96.1	89.7	101	91.5	71.1
CN(C)c1ccc(Nc2nc(N)n(C(=O)c3c(F)cccc3F)n2)cc1	105	118	110	92.2	111	117	97.1	69	43.9	64.7	56.1	108	110	123	96.8	118	120	90.2	42.7	32.3	38	48.7	102	118	117	76.3	142	127	95.5	61.2	34.8	40.5	40.6
